{
  "source": "patent US8257742B2",
  "about": "“Bisphosphonates for treating endometriosis” (Yissum Research Development Company of the Hebrew …, priority 2005, dated 2012)",
  "origin": "cited, not measured here",
  "system": "endometriosis explants",
  "conditions": "in vivo",
  "data": [
    {"smiles": "C=CCn1c(=O)n([C@@H]2O[C@H](CO)[C@@H](O)[C@H]2O)c2nc(N)[nH]c(=O)c21", "note": "[loxoribine, Loxoribine]", "values": [
      {"measurement": "regression of endometriosis explants", "result": "Regression of endometriosis explants was observed"}
    ]}
  ]
}
